Results as given in US20220241276A1, “COMPOSITIONS AND METHODS FOR TREATING CANCER” (The Regents of the University of Michigan, priority 2019, published 2022).
Values joined by “and” are separate entries in the source; they are usually repeats but may differ in a detail not shown here. Equal values may be shown once. Read-outs that look alike come from different tables or passages of the source.

Columns and labels:
[1] = system: advanced adrenocortical carcinoma (ACC); details: cited from earlier work
[2] = system: advanced adrenocortical carcinoma (ACC); assay: Phase 3 study (GALACCTIC; Fassnacht et al. Lancet Oncology 2015) of OSI-906/linsitinib vs placebo in patients with advanced adrenocortical carcinoma; assay type: in vivo, human; details: prior trial, 6/90 patients, unselected
Excerpt: In some embodiments, the agent is an IGF1R inhibitor.
This includes 4 patients who achieved a partial response (PR) by RECIST criteria (Eisenhauer et al. Eur J. Cancer. 2009), and 2 patients who achieved long-term stable disease (SD; also by RECIST criteria, Eisenhauer et al. Eur J. Cancer. 2009).

[3] = system: adrenocortical carcinoma (ACC); details: cited from earlier work
[4] = individual patients G-L, non-responders to OSI-906, per patient

SMILES | Patients with favorable response / treated patients ([1]; OSI-906-treated arm, unselected advanced ACC) | Kaplan-Meier progression-free survival curves, linsitinib-treated vs placebo-treated ([1]; all patients of the trial) | Progression-free survival (days) ([1]; individual patients A-F, responders to OSI-906, per patient, '+' given after value) | Best change from baseline in sum of target lesions (%) ([1]; individual patients A-F, responders to OSI-906, per patient) | Best change from baseline in sum of target lesions (%) [1, 4] | Progression-free survival [1, 4] | Number of patients who achieved a partial response (PR) ([1]; of 90 OSI-906-treated patients, RECIST) [patients] | Drug toxicities ([1]; patients with ACC) | Primary endpoint of the Phase 3 study ([1]; patients with ACC) | Progression-free survival of long-term durable responders ([1]; small subset of linsitinib-treated patients, not seen with placebo) [days] | Response rate [2] [%] | Patients who recur during adjuvant therapy after surgery or progress during therapy for non-resectable disease ([3]; mitotane therapy) | Efficacy ([3]; recent studies) | Toxicity ([3]; recent studies)
C[C@]1(O)C[C@@H](c2nc(-c3ccc4ccc(-c5ccccc5)nc4c3)c3c(N)nccn32)C1 [OSI-906, linsitinib] | 6/90 | no statistical difference | 169+ days and 504+ days and 525+ days and 205+ days and 433+ days and 440+ days | −50% and −45.625% and −45% and −5.882% and 0% and −78.46% | 32.26% and 35.29% and 38.28% and 48.35% and 23.51% | 38 days and 41 days and 42 days (3×) and 48 days | 4 | limited and manageable | failed to reach the primary endpoint | > 150 | 6.7 |  |  | 
Clc1ccc(C(c2ccccc2Cl)C(Cl)Cl)cc1 (centres unmarked) [mitotane] |  |  |  |  |  |  |  |  |  |  |  | up to 90% | only marginally effective | highly toxic
